Source: PubChem BioAssay (NCI)
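Five compound concentrations were applied to cells in 96-well plates for 48 hours; endpoints were derived by simple linear interpolation of the resulting dose-response curve. TGI marks complete inhibition of growth.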

How the values were obtained:
Experiment in all cases: DTP human tumour cell line panel, 48 h
[1] = test system: DMS 273 small cell lung
[2] = test system: SNB-75 CNS
[3] = test system: MCF7 breast
[4] = test system: T-47D breast
[5] = test system: MDA-MB-435
[6] = test system: MDA-N

| Compound | TGI [1] [µM] | TGI [2] [µM] | TGI [3] [µM] | TGI [4] [µM] | TGI [5] [µM] | TGI [6] [µM] |
| --- | --- | --- | --- | --- | --- | --- |
| CCC12CCC[C@@]13C=C[C@H](O3)C(C)(C)C2=O (stereo partly specified) | > 100 | > 100 |  |  |  |  |
| CC1(C)N=C(/C(Cl)=[N+](/[O-])C(=O)c2ccc(Cl)cc2)C(C)(C)N1O |  |  | 32.7 | 95.1 | 52.4 | 32.4 |
